According to patent publication US7973043B2, “Combination therapy for depression, prevention of suicide, and various medical and psychiatric conditions” (priority 2002, dated 2011):

Assays:
[1] = before the X-ray changes; cited from earlier work
[2] = combined data from many studies; cited from earlier work
[3] = cited from earlier work; for annual risk of TD as fraction of the risk associated with haloperidol: relative to haloperidol
D2 receptor = D2 receptor (Homo sapiens, UniProt P14416); details: relative to risperidone and olanzapine; cited from earlier work
D2 receptor, sequence (P14416 whole entry): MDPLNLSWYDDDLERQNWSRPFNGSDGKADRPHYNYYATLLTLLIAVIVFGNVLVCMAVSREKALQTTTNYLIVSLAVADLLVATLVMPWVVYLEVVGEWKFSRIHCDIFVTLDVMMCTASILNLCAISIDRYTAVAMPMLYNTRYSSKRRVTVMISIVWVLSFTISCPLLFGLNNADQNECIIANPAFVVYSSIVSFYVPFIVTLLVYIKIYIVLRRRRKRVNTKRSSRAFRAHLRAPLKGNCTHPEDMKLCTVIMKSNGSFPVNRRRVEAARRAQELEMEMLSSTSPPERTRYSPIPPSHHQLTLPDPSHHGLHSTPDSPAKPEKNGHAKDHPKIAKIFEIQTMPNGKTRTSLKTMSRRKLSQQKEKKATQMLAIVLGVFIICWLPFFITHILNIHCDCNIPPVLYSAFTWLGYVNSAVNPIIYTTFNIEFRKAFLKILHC

[4] = antipsychotic alone; cited from earlier work

N[C@@H]1CONC1=O [DCS]
antidepressant effect [1]: prompt antidepressant effects

Cc1cc2c(s1)Nc1ccccc1N=C2N1CCN(C)CC1 [olanzapine]
relative risk of drug-induced acute EPS in declining order [2]: risperidone >ziprasidone >=olanzapine >quetiapine | One year risk of TD ([3]; all patients): 0.52% | annual risk of TD as fraction of the risk associated with haloperidol [3]: about 1/12

OCCOCCN1CCN(C2=Nc3ccccc3Sc3ccccc32)CC1 [quetiapine]
relative risk of drug-induced acute EPS in declining order [2]: risperidone >ziprasidone >=olanzapine >quetiapine | adverse effect (hypothetical cases): lightheadedness | time until suicidality vanishes (second hypothetical case, MDD, quetiapine 50 mg added to paroxetine 20 mg q d): 24 h | dissociation from the dopamine receptor (D2 receptor): fast dissociation

Cc1nc2n(c(=O)c1CCN1CCC(c3noc4cc(F)ccc34)CC1)CCCC2 [risperidone]
annual risk of TD as fraction of the risk associated with haloperidol [3]: ⅙ | activity in the chronic mild stress (CMS) model [4]: ineffective

O=C1Cc2cc(CCN3CCN(c4nsc5ccccc45)CC3)c(Cl)cc2N1 [ziprasidone]
relative risk of drug-induced acute EPS in declining order [2]: risperidone >ziprasidone >=olanzapine >quetiapine
